# Data from US7888116B2, “Uses of notch receptors, notch ligands, and notch modulators in methods related to metabolic diseases” (The United States of America as represented by the …, priority 2005, dated 2011).
# “Also recorded” adds a separate entry of the source.
# Legend:
# Notch-1 (NICD) [1] = assay: NICD nuclear translocation in RIN cells (indirect immunofluorescence, immunoblot of nuclear extracts); type: cell-based, rat; conditions: for effect on Ex-4-mediated translocation of NICD: H89 10 μM, L-685,458 pretreatment for 2 h
# Experimental: (§1) Islet isolation, cell culture and treatments. Adult rat (Sprague-Dawley) and mouse (C57/BL6) islets were isolated by collagenase P digestion and cultured overnight in M199 medium (5 mM glucose). RIN 1046-38 β-cells were cultured as outlined previously (Wang, et al., Endocrinology, 142:1820-1827 (2001)). Isolated human islets came from David Harlan, Transplant Section, NIDDK. Ex-4, GLP-1, CCK (all used at concentrations previously shown to cause maximum insulin release), Ex and the γ-secretase inhibitor, L-685,458, were obtained from Bachem. H89 was from Calbiochem, insulin was from Sigma. The Jagged peptides, R-JAG […] (SEQ ID NO:1), JAG-1 […] (SEQ ID NO:2), and scrambled control peptide without agonist activity, sc-Jagged […] (Nickoloff, et al., Cell Death Differ, 9842-855 (2002)) (SEQ ID NO:3), were synthesised by New England Peptide Inc.
# (§2) Cell extracts, immunoblotting and RT-PCR. Cytosolic and nuclear cell extracts were prepared using the NE-PER Nuclear and Cytoplasmic Extraction Reagents (Pierce) in accordance with the manufacturer's instructions. Whole cell extracts were isolated as described (Wang, et al., Endocrinology, 142:1820-1827 (2001)). Cell extracts were separated by Tris-glycine (10%, 4-12%) PAGE (Invitrogen) and immunoblofted as described (Wang, et al., Endocrinology, 142:1820-1827 (2001)) using the following antibodies: rabbit anti-Notch1 (1:5,000), rabbit anti-IRS2 (1:1,000), both from Upstate Biotechnology, rabbit N-terminal anti-PDX-1 (1:10,000, from Joel Habener (Stanojevic, et al., Endocrinology, 145:2918-2928 (2004)). Total RNA was extracted using Triazol (Invitrogen) according to the manufacturer's instructions. RT-PCR was performed using the Qiagen OneStep RT-PCR kit. See Table 2 for primer sequences and annealing temperatures. Each target gene was amplified over 35 cycles.
# (§3) RIN cells were permeabilized in Triton-X (0.1%) on ice and blocked for 1 h at room temperature in 3% BSA and 0.1% Tween in PBS. They were incubated overnight at 4° C. with the primary antibody, washed in PBS and incubated with fluorescent labelled secondary antibody for 1 h, washed and mounted with fluorescence mounting medium (Vector Laboratories). Mouse sections (FIG. 9) for indirect immunofluorescence were antigen-retrieved, processed in the same manner as the cells and stained with anti-Notch-1. Indirect immunofluorescent staining was imaged using a Zeiss LSM-410 inverted microscope. AlexaFluor antibodies (Molecular Probes; Eugene, Oreg.) were excited with the 488-nm line of a krypton-argon laser and recorded at the presence of emission filter BP515-565 nm. The microscope objective was a Zeiss 63×NA 1.4 oil immersion and the confocal pinhole was set to obtain spatial resolution of […] in the horizontal plane and […] in the axial dimension.
# C57/BL6 mouse islets = assay: Immunoblotting for IRS2 and PDX-1 in C57/BL6 mouse islets treated for 8 h; type: cell-based; conditions: for PDX-1 levels: islets
# Experimental: as §1, §2
# γ-secretase = target: T1, γ-secretase (Rattus norvegicus, UniProt P97887); assay: γ-secretase activity assay (Notch ΔE-GVP / UAS-luciferase reporter) in RIN cells; type: cell-based; conditions: for effect on Ex-4-activated γ-secretase cleavage / UAS promoter activation: RIN cells transfected with Notch ΔE-GVP
# T1 construct: endogenous in cells; host or cells: RIN 1046-38 rat β-cells
# Experimental: Transfections and Luciferase assays. The rat insulin-I promoter linked to the luciferase reporter plasmid pGL3 (Ins-1-luc) was obtained from Michael Freemark (Fleenor and Freemark, Endocrinology, 142:2805-2810 (2001)), and both the Notch ΔE-GVP plasmid and UAS responsive reporter gene construct MH100 were from Johan Lundkvist (Karlstrom, et al., J Biol Chem, 277:6763-6766 (2002)). For the insulin reporter gene assay, RIN cells in 35 mm dishes were co-transfected with 0.8 μg ins-1-luc plasmid and 0.7 μg of pCMV-β-galactosidase using 8 μl of Polyfect (Qiagen). For the γ-secretase activity assay RIN cells in 12 well plates were co-transfected with 30 ng of pCMV-β-galactosidase, 200 ng of MH100, 100 ng Notch ΔE-GVP plasmids for each well using Lipofectamine PLUS (Invitrogen). The transfected cells were allowed to recover for 24-48 h in medium with serum and subsequently incubated in insulin secretion assay buffer (for the insulin promoter assay) or in medium without serum (for the γ-secretase assay) with or without Ex-4 and inhibitors. Ins-1-luc and Notch ΔE-GVP activities were measured using assay system kits from Promega according to the manufacturer's instructions using a Berthord LB 9501 luminometer. The luciferase values were normalized to β-galactosidase measured using the luminometer for lysates from 35 mm dishes and an ELISA plate reader (Spectra Max Plus, Molecular Devices) for lysates from 12 well plates.
# RIN 1046-38 β-cells = assay: Insulin secretion and intracellular insulin in RIN cells (ELISA); type: cell-based, rat; conditions: for insulin release, R-JAG and Ex-4 together vs either alone: 6 h time point; for total intracellular insulin: 6 h treatment; for insulin release into the medium: time course
# Experimental: (§4) Insulin assays and cell turnover studies. Insulin secretion assays were performed and intracellular insulin was extracted as described (Wang, Y. et al., J. Clin. Invest., 99:2883-2889 (1997)), followed by insulin quantification using an ELISA kit (Crystal Chem). Cells were treated for 8 h as indicated and pulsed with [^3H]thymidine (PerkinElmer Life Sciences) at 37° C., followed by lysis of the cells and [^3H] counting (He, et al., J Biol Chem, 278:27096-27104 (2003)).
# RIN cells [2] = assay: [3H]thymidine uptake (β-cell proliferation) in RIN cells; type: cell-based, rat; conditions: 8 h treatment
# Experimental: as §4
# RIN cells [3] = assay: RT-PCR and immunoblotting of whole RIN cell extracts (insulin, IRS2, PDX-1, Notch-1); type: cell-based, rat
# Experimental: as §2, with “Each target gene was amplified over 35 cycles.” left out
# Rat islets = assay: Rat islets: real time PCR and intracellular insulin after R-JAG; type: cell-based
# Experimental: Rat islets (80) were pre-incubated for 2 periods of 30 min in the glucose-free buffer in a 37° C. humidified air incubator. […] At the end of the experiment, islets were centrifuged and any residual medium removed and stored −20° C. for quantification of insulin released. The pellet was suspended in ice cold acid-ethanol (500 μl) and homogenized. After centrifugation of the homogenate (1,400 g, 4° C.) the supernatant was collected for measurement of intracellular insulin using the Rat insulin ELISA kit from Crystal Chem. Inc. (Chicago, Ill.). The pellet was lysed with 0.2 ml formic acid and saved at […] for analysis of protein by the Bradford method (Bio-Rad Laboratories, Inc. Richmond, Calif.). A control condition with insulin secretion assay buffer containing just 6 mM glucose was used. Insulin values were normalized to protein content.
# Reverse transcription. DNA-free RNA was isolated using the Triazol extraction method (Invitrogen; Carlsbad, Calif.) following the manufacturer's protocol. DNAse I treatment and inactivation, and reverse transcription reaction primed with random sequence oligonucleotides were performed using Ambion instruction manual and Cells-to-cDNA II kits components in the I-Cycler thermocycler from BioRad. As a control, a mock reverse transcription containing all RT reagents except the Reverse Transcriptase, which was substituted with water, was used.
# Real Time PCR. Real time PCR reactions were performed using the ABI PRISM™ 7700 Sequence Detection Systems (Applied Biosystems; Valencia, Calif.) and the SYBER Green kit from Applied Biosystems. All PCR reactions were performed in triplicate using the SYBER Green master mix (12.5 μl) from Applied Biosystems, 1 μg of cDNA, 2.5 μl of each 0.5 μM primer and water for a 25 μl reaction. Cycling parameters for amplifications of target genes were (95° C. for 10 min, at 94° C. for 15 seconds, 60° C. for 1 min)×40 cycles. The target gene copy number in unknown samples was quantified by measuring the threshold cycle CT and by using the standard curve to determine the starting copy number. The β-actin gene was an endogenous control. Final results were expressed as n-fold differences relative to untreated controls.
# Notch-1 (NICD) [4] = assay: NICD in islet nuclei of wild-type and GLP-1R null mice after intraperitoneal treatment; type: in vivo, mouse; conditions: fasted, 1 nmol/kg IP
# Experimental: as §3, with “Animal Protocols. Wild-type and GLP-1R −/− mice (Scrocchi, L. A. et al. Nat. Med., 2:1254-1258 (1996)) were injected intraperitoneally with Ex-4 (1 nmol/kg) or glucose (1 g/kg) after overnight fast and their pancreata excised. Animal protocols were approved by the NIA Animal Care and Use Committee. RIN” for “RIN”
compound,measurement,setting,value
"CC(C)C[C@H](NC(=O)[C@H](Cc1ccccc1)C[C@@H](O)[C@H](Cc1ccccc1)NC(=O)OC(C)(C)C)C(=O)N[C@@H](Cc1ccccc1)C(N)=O [L-685,458]",effect on Ex-4-mediated translocation of NICD,Notch-1 (NICD) [1]; RIN cells,inhibited
same,effect on Ex-4-mediated increase in IRS2 levels,C57/BL6 mouse islets; C57/BL6 mouse islets,diminished; also recorded: decreased
same,effect on R-JAG-mediated increases in IRS2 levels,C57/BL6 mouse islets; C57/BL6 mouse islets,prevented; also recorded: completely abrogated
same,effect on Ex-4-activated γ-secretase cleavage / UAS promoter activation,γ-secretase,greatly diminished; also recorded: abrogated; also recorded: blocked
Exendin 9-39,NICD nuclear localization with GLP-1 (50 nM) in conjunction with the GLP-1R antagonist,"Notch-1 (NICD) [1]; RIN cells, antagonist 500 nM",equivalent to glucose treatment alone
"R-JAG: Jagged-related peptide, Notch receptor binding fragment, CDDYYYGFGCNKFGRPRDD (SEQ ID NO:1)",trypan blue exclusion (cell death),RIN 1046-38 β-cells; RIN cells treated with R-JAG,continued to exclude trypan blue
same,"insulin secretion, replenishment every two hours vs single treatment","RIN 1046-38 β-cells; RIN cells, 6 h",greater effect
same,"insulin release, R-JAG and Ex-4 together vs either alone",RIN 1046-38 β-cells; RIN cells,greater that either alone
same,total intracellular insulin,RIN 1046-38 β-cells; RIN cells,significant increase
same,insulin release into the medium,RIN 1046-38 β-cells; RIN cells,elevated insulin release into the medium after 2.5 h had elapsed
same,"[3H]thymidine uptake, increase above glucose treatment",RIN cells [2],30%
same,PDX-1 levels,RIN cells [3],increased
same,IRS2 and insulin mRNA with replenishing every 2 h,RIN cells [3]; RT-PCR,sustained elevations
same,IRS-2 mRNA,RIN cells [3]; RT-PCR,increased
same,insulin mRNA levels,RIN cells [3]; RT-PCR,increased
same,time course of IRS2 and insulin mRNA after single treatment,"RIN cells [3]; RT-PCR 27 cycles, normalized to GAPDH",diminished after 8 h
same,IRS-2 protein levels,RIN cells [3]; immunoblot,increased
same,total Notch1 levels,RIN cells [3]; immunoblot,increased
same,PDX-1 levels,C57/BL6 mouse islets,increased
same,increase in IRS-2 protein levels,C57/BL6 mouse islets; mouse islets of Langerhans,1.5 fold
same,intra-cellular insulin,"Rat islets; R-JAG 10 μM, glucose 6 mM",increase
same,IRS-2 transcription,Rat islets; over 2 and 6 hours,increases
same,PDX-1 transcription,Rat islets; over 2 and 6 hours,increases
same,insulin transcription,Rat islets; over 2 and 6 hours,increases
"scrambled Jagged peptide: scrambled control peptide without agonist activity, RCGPDCFDNYGRYKYCF (SEQ ID NO:3)","[3H]thymidine uptake, increase above glucose treatment",RIN cells [2],no effect
Exendin-4 [Ex-4],"insulin release, R-JAG and Ex-4 together vs either alone",RIN 1046-38 β-cells; RIN cells,greater that either alone
same,total intracellular insulin,RIN 1046-38 β-cells; RIN cells,increased
same,insulin release into the medium,RIN 1046-38 β-cells; RIN cells,acutely increased
same,"[3H]thymidine uptake, increase above glucose treatment",RIN cells [2],increased
same,PDX-1 levels,C57/BL6 mouse islets,increased
same,NICD translocation to islet cell nuclei,Notch-1 (NICD) [4],caused NICD translocation to nuclei of practically all islet cells; also recorded: increased NICD in all islet cells
same,increase in transcriptional activation of the UAS promoter (cleavage of Notch ΔE-GVP),γ-secretase; RIN cells transfected with Notch ΔE-GVP and MH100,at least 20 fold
insulin,nuclear NICD / NICD translocation,Notch-1 (NICD) [1]; RIN cells treated with secretagogues,equivalent to control samples
O=S(=O)(NCCNC/C=C/c1ccc(Br)cc1)c1cccc2cnccc12 [H89],effect on glucose-mediated NICD translocation,Notch-1 (NICD) [1]; RIN cells,prevented
same,effect on Ex-4-mediated translocation of NICD,Notch-1 (NICD) [1]; RIN cells,diminished
same,effect on Ex-4-activated γ-secretase cleavage / UAS promoter activation,γ-secretase,greatly diminished; also recorded: abrogated; also recorded: blocked
